What all share (type): biochemical, Corynebacterium aquaticum AKU611
Series [1] concerns the target T1, levodione reductase (Leifsonia aquatica, UniProt Q9LBG2).
T1 construct: The LR is isolated and purified from the cell-free extract of disrupted cells; made in house; host or cells: Corynebacterium aquaticum AKU611 (FERM BP-6448); This is the natural producer and there was no recombinant expression; The enzyme was purified by ammonium sulfate precipitation and DEAE-Sephacel, alkyl Superose and MONO Q chromatography
T1 sequence (Q9LBG2 1-267): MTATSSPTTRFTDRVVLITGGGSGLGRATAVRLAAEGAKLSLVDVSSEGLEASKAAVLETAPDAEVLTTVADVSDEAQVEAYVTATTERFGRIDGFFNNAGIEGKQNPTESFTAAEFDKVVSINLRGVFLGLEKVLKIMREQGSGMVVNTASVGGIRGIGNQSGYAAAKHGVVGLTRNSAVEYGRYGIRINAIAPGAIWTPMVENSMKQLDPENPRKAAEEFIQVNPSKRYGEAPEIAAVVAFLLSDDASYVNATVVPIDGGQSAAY
As to the kind of experiment: Substrate specificity, standard LR enzyme assay (NADH decrease at 340 nm). Particulars: for Enzyme Activity: substrate 2 mM final concentration instead of levodione. As for the experimental part: A basal reaction mixture having a total volume of 500 μl includes 100 μl of 1 M potassium phosphate buffer (pH 7.0), 20 μl of 8 mM NADH in 0.2 mM KOH, 10-40 μl of the enzyme solution (i.e., levodione reductase), and water up to a total of 500 μl . This reaction mixture was incubated for 1 minute at 37 ° C. Then, 2 μl of 0.5 M levodione solution were added to give a final concentration of 2 mM, and the whole mixture was incubated for 1 minute at 37 ° C. The levodione reductase enzyme activity was monitored with the decrease of the absorbance of NADH at 340 nm.
In the present invention, one unit of the levodione reductase enzyme activity is defined as the amount of the levodione reductase which catalyzes the oxidation of 1 μmole of NADH per minute.
The substrate specificity of the enzyme was determined using the same enzyme assay method as described under 1, except that various solutions containing different substrates (2 mM final concentration in the reaction mixture) were used instead of levodione.

The target in series [2] is T1, levodione reductase. Nature of the series: Co-factor requirement / identification of reaction product. Particulars: for function as co-factor / electron donor: reduction of levodione to actinol. As for the experimental part: […] To this reaction mixture, 10 Al of a 0.5 M levodione solution were added five times at 6 minute intervals. The reaction mixture was incubated for a further 5 minutes, and extracted with 1 ml of ethyl acetate. The extract was analyzed by gas chromatography (column: HR-20M (Shinwa, Kyoto, Japan) 0.25 mm Ø×30 m), column temperature: 160° C. (constant), injector temperature: 250° C., carrier gas: He (about 1 ml/min.). As a result, the product was identified as being actinol in comparison with a standard sample of actinol.

Substrate in series [3]: C[C@@H]1CC(=O)CC(C)(C)C1=O
As to the kind of experiment: Michaelis constant (Km) and maximum velocity (Vmax). Particulars: other: compound as substrate; pH 7.0; 37.0 °C.

Substrate in series [4]: C[C@@H]1C[C@@H](O)CC(C)(C)C1=O
The series is described as above. The following applies: other: compound as substrate; pH 7.0; 37.0 °C.

Entries after “also recorded” stand apart in the source; their conditions may differ.

In the case of `C[C@@H]1CC(=O)CC(C)(C)C1=O` [Levodione, (6R)-2,2,6-trimethylcyclohexane-1,4-dione], the “Enzyme Activity” value on levodione reductase [1] came to 5.66 unit/ml. Moreover, the “substrate specificity of the enzyme” value at levodione reductase [1] (substrates 2 mM) was “the only substrate for which the enzyme exhibited activity”.

With `NC(=O)C1=CN([C@@H]2O[C@H](COP(=O)(O)OP(=O)(O)OC[C@H]3O[C@@H](n4cnc5c(N)ncnc54)[C@H](OP(=O)(O)O)[C@@H]3O)[C@@H](O)[C@H]2O)C=CC1` [NADPH], the “actinol detected by gas chromatography” value at levodione reductase [2] (NADH replaced with NADPH, 30° C.) is on record as “only a trace amount of actinol was detected”. In addition, the “function as co-factor / electron donor” value on levodione reductase [2] is “does not work as an electron donor; also recorded: could not”.

Regarding `O=C1CCCCC1` [Cyclohexanone], on levodione reductase [1], the “Enzyme Activity” value is recorded as “Not detected (ND)”.

Regarding `NC(=O)C1=CN([C@@H]2O[C@H](COP(=O)(O)OP(=O)(O)OC[C@H]3O[C@@H](n4cnc5c(N)ncnc54)[C@H](O)[C@@H]3O)[C@@H](O)[C@H]2O)C=CC1` [NADH], on levodione reductase [2], the “function as co-factor / electron donor” value is “could serve as a co-factor”.

B1: levodione reductase (Leifsonia aquatica) (protein)
chain: MTATSSPTTRFTDRVVLITGGGSGLGRATAVRLAAEGAKLSLVDVSSEGLEASKAAVLETAPDAEVLTTVADVSDEAQVEAYVTATTERFGRIDGFFNNAGIEGKQNPTESFTAAEFDKVVSINLRGVFLGLEKVLKIMREQGSGMVVNTASVGGIRGIGNQSGYAAAKHGVVGLTRNSAVEYGRYGIRINAIAPGAIWTPMVENSMKQLDPENPRKAAEEFIQVNPSKRYGEAPEIAAVVAFLLSDDASYVNATVVPIDGGQSAAY
notes: The LR is isolated and purified from the cell-free extract of disrupted cells; made in house; host or cells: Corynebacterium aquaticum AKU611 (FERM BP-6448); This is the natural producer and there was no recombinant expression; The enzyme was purified by ammonium sulfate precipitation and DEAE-Sephacel, alkyl Superose and MONO Q chromatography
As for B1, the Km in series [3] is 8.5 mM; in series [4] it was 1.36 mM. In addition, the values for the Vmax in series [3] and in series [4] were 101.26 unit/mg and 15.91 unit/mg, respectively.

Source of the values: patent US6465228B1, “Levodione reductase” (Roche Vitamins, Inc., priority 1999, dated 2002).
